Data set [1] is described as follows: In vitro metabolic incubation with human liver microsomes, UHPLC-HRMS metabolite profiling. Type of data set: in vitro ADME. The following applies: 37 °C, 2 h. The method, then: (§1) Mixed-gender human liver microsomes (10-Donor Pool, total protein concentration of 20 mg/mL) and mixed-gender human skin S9 (3-Donor Pool, total protein concentration of 1.89 mg/mL) were purchased from BioreclamationIVT (Westbury, NY, USA). Phosphate buffered saline (PBS, pH 7.2~7.4) was obtained from Sangon Biotech Co., Ltd. (Shanghai, China). BPC-157 (HPLC purity > 99%) and (Deamino-cysl, val4, D-arg8)-Vasopressin (DCVDV, internal standard, ISTD) were purchased from Alta Scientific Co., Ltd. (Tianjin, China). ^13C6,^15N2-BPC-157 (labeled BPC-157, HPLC purity > 98%) was purchased from Synpeptide Co., Ltd. (Nanjing, China). BPC-157 (2–15) free acid, BPC-157 (1–13) free acid, BPC-157 (2–13) free acid, BPC-157 (1–12) free acid, BPC-157 (3–15) free acid, BPC-157 (1–8) free acid, and BPC-157 (2–8) free acid were synthesized by Alta Scientific Co., Ltd. (Tianjin, China). MgCl2 was from Beyotime Biotechnology (Shanghai, China). Nicotinamide adenine dinucleotide phosphate (NADPH) was purchased from Vetec (Shanghai, China). Acetonitrile (ACN), methanol (MeOH), and formic acid (FA) were of LC-MS grade and were obtained from Thermo Fisher Scientific (San Jose, CA, USA). Milli-Q purified water (MerckMillipore, Vimodrone, Milan, Italy) was used for sample preparation, reference material dilution, and LC mobile phase preparation. […]
A general note: Liver microsomes are a subcellular fraction often used to study metabolism.

The nature of data set [2]: In vitro metabolic incubation with human skin S9, UHPLC-HRMS metabolite profiling. In kind it is in vitro ADME. The note with it: human skin S9 0.189 mg/mL, 37 °C, 2 h. The method, then: as §1
A short description of data set [3]: mixed-gender human skin S9 (3-Donor Pool) in PBS. The following applies: 37 °C, up to 2 h.
Data set [4] can be described thus: mixed-gender human liver microsomes (10-Donor Pool) in PBS with MgCl2 and NADPH. The following applies: 37 °C, up to 2 h.
Data set [5] is described as follows: in vitro plasma metabolism. The note with it: cited from earlier work.

These results are taken from publication PMC10650108 (Molecules, 2023).

“Also recorded” adds a separate entry of the source. Ends that are not written are not given here.

Consider “EPPPGKPADDAG [BPC-157 (2–13) free acid (M3), BPC-157 (2–13) free acid]”, for which the “Detection of metabolite in the human liver microsome incubation system (in words)” value in data set [1] (human liver microsomes 1 mg/mL, NADPH, UHPLC-HRMS) is reported as “only detected in the human liver microsome incubation system”.

On to “EPPPGKPADDAGL [BPC-157 (2–14) free acid (M5), BPC-157 (2–14) free acid]”, for which the “Detection of metabolite in the human skin S9 incubation system (in words)” value in data set [2] is reported as “only detected in the human skin S9 incubation system”.

As for “EPPPGKPADDAGLV [BPC-157 (2–15) free acid (M8), BPC-157 (2–15) free acid]”, the “Relative response of metabolites (relative abundance)” value in data set [1] (both incubation systems (human liver microsomes and human skin S9), relative to the most abundant metabolite M8) is listed as “most abundant metabolite in both incubation systems”.

GEPPPGKPADDAGLV [BPC-157]: the cleaved bond result is reported as “glycine1-E2, major” in data set [3] and “glycine1-E2, major” in data set [4]. For the same sequence, the fragment found entry in data set [3] is on record as “BPC-157 (1–14) free acid (M6), GEPPPGKPADDAGL; also recorded: BPC-157 (2–8) free acid (M1), EPPPGKP, major; also recorded: BPC-157 (1–8) free acid (M2), GEPPPGKP, major; also recorded: BPC-157 (1–13) free acid (M4), GEPPPGKPADDAG, major”; in data set [4] it was “BPC-157 (1–14) free acid (M6), GEPPPGKPADDAGL; also recorded: BPC-157 (2–8) free acid (M1), EPPPGKP, major; also recorded: BPC-157 (1–8) free acid (M2), GEPPPGKP, major; also recorded: BPC-157 (1–13) free acid (M4), GEPPPGKPADDAG, major”; in data set [5], “BPC-157 (2–15) free acid (M8), major; also recorded: BPC-157 (2–13) free acid”.

With GEPPPGKPADDAGLV [labeled BPC-157], in data set [4], the fragment found result is reported as “labeled M9”.

“GKPADDAGLV [BPC-157 (6–15) free acid (M7), BPC-157 (6–15) free acid]”: the “Detection of metabolite in the human skin S9 incubation system (in words)” value in data set [2] is “only detected in the human skin S9 incubation system”.
